Measurements reported in patent publication US4798807A, “Monoclonal antibodies and method for detecting dioxins and dibenzofurans” (priority 1986, dated 1989).
“Also recorded” adds a separate entry of the source.

Experiments:
monoclonal antibody DD-6 = assay: Competition ELISA with monoclonal antibody DD-6; format: binding, Biozzi mice; settings: competitor vs monoclonal antibody DD-6; plate coated with A-triCDD-RSA
Procedure: (§1) In this case the hybridomas were then screened for their ability to distinguish A-triCDD-BSA and A-triCDD-RSA from BSA and RSA. On the basis of this initial screen about 25 stable, antibody-producing colonies were isolated, subcloned, and frozen. The remaining clones were again screened for their abilities to recognize free TCDD in suspension. Experimentally, on the order of 10-100 nanograms of TCDD in hexane was dried, 0.5 ml of saline with BSA (1 mg/ml) was added and sonificated for 2 hrs. […] Identical procedures were followed for other dioxin isomers. A dilution series in microtiter plate wells was then made with the suspended TCDD, antibody adde, and the competition ELISA completed. Competition ELISA test procedures are discussed in detail in the following reference: Butt, W. R. (1984) "Practical Immunoassay: The State of the Art", Marcel Dekker, Inc., N.Y., N.Y.
(§2) A large part of the success that we have had in characterizing the binding specificities of our monoclonal antibodies comes from having developed a reliable competition ELISA protocol. Our preferred assay starts from stock solutions at 10 ppm in hexane of the various compounds listed in Table I. 10 μl of hexane solution is aliquoted into a small vial, evaporated under a stream of nitrogen gas, and 500 μl of a 1 mg/ml solution of BSA in phosphate buffered saline with 0.1% BSA is added. The vial is capped and placed in an ultrasonic cleaning waterbath for two hours. Two hours of sonification gives a more reproducible assay than does an hour. During the sonification, the hexane appears to evaporate completely, and one is left with an aqueous solution containing the dioxin. Microtiter plates coated with A-triCDD-RSA are blocked with a three percent solution of ovalbumin and a two-fold dilution series of sonificated dioxin-BSA is then made, covering the range 100 ppb-0.1 ppb. In each well of the plate 100 μl of the sonificated dioxin-BSA solution is mixed with n equal volume of antibody. The antibody partitions between the dioxin adsorbed to the BSA, and the A-tri-CDD-RSA on the plate.
(§3) A-TriCDD-RSA was adsorbed onto the surface of the wells of a microtiter plate. The various competitors listed were suspended in saline containing bovine serum albumin (BSA). These solutions were made by sonificating 10 μl of dioxin solution in hexane with 500 μl of saline-BSA. A dilution series of these dioxin-BSA solutions was then made covering the range of 100-0.2 ppb, and placed in the microtiter plate wells. An equal volume of DD-1 monoclonal antibody was then added, and allowed to react for 1 hour. Tne antibody binds either to the A-TriCDD-RSA on the plate or the dioxin in solution. After the hour, the solution phase is removed, the plate washed, and it is reincubated for an hour with peroxidase-conjugated goat-anti-mouse-immunoglobulins. A second washing is then done, and substrate (ABTS) added to the peroxidase. The enzyme-antibody conjugate and substrate function as a "developer", allowing the visualization of the DD-1 bound to the A-triCDD-RSA on the plate. Results are then expressed as a fraction of the response in wells with no competitor. […] At about 20 ppb of 2,3,7,8-TCDD the relative ELISA response is half of control, meaning that half the DD-1 antibody bound to the solution phase dioxin and half bound to the A-triCDD-RSA on the plate. For 1,2,3,7(8)-TCDD, 50% inhibition occurs at about 4 ppb, indicating the DD-1 prefers 1,2,3,7(8)-TCDD to 2,3,7,8-TCDD.
(§4) The FIGURE and Table II show representative competition data using several chlorinated compounds as competitors. From such data, one can determine the concentration required to inhibit antibody binding by 50% (I50). Table II lists the I50 for all compounds tested with the antibodies. In reporting these values, factors of two are about the limit of significance. […] The binding specificities of these antibodies are highly desirable, since they prefer the most toxic of the dioxin and dibenzofuran isomers.

monoclonal antibody DD-3 = assay: Competition ELISA with monoclonal antibody DD-3; format: binding, BALB/c mice; settings: competitor vs monoclonal antibody DD-3; plate coated with A-triCDD-RSA
Procedure: as §1, §2, §3, §4

monoclonal antibody DD-5 = assay: Competition ELISA with monoclonal antibody DD-5; format: binding, Biozzi mice; settings: competitor vs monoclonal antibody DD-5; plate coated with A-triCDD-RSA
Procedure: as §1, §2, §3, §4

monoclonal antibody DD-4 = assay: Competition ELISA with monoclonal antibody DD-4; format: binding, BALB/c mice; settings: competitor vs monoclonal antibody DD-4; plate coated with A-triCDD-RSA
Procedure: as §1, §2, §3, §4

[1] = test system: monoclonal antibodies DD-1, DD-3, DD-4, DD-5 and DD-6; assay: Competition ELISA, statements for all antibodies together; format: binding, BALB/c and Biozzi mice; settings: for reactivity of all antibodies with competitor: up to the highest concentration tested (100 ppb)
Procedure: as §1, §2, §3, §4

monoclonal antibody DD-1 = assay: Competition ELISA with monoclonal antibody DD-1; format: binding, Biozzi mice; settings: for I50 (inhibits antibody binding by 50%): competitor vs monoclonal antibody DD-1, plate coated with A-triCDD-RSA
Procedure: as §1, §2, §3, §4

Compound	I50 (inhibits antibody binding by 50%) (monoclonal antibody DD-6) [ng]	I50 (inhibits antibody binding by 50%) (monoclonal antibody DD-3) [ng]	I50 (inhibits antibody binding by 50%) (monoclonal antibody DD-5) [ng]	I50 (inhibits antibody binding by 50%) (monoclonal antibody DD-4) [ng]	reactivity of all antibodies with competitor [1]	I50 (inhibits antibody binding by 50%) (monoclonal antibody DD-1) [ng]	affinity / recognition by all antibodies [1]	concentration at which 50% inhibition occurs (relative ELISA response half of control) (monoclonal antibody DD-1; FIGURE, DD-1, competitor in saline-BSA, dilution series 100-0.2 ppb)	reaction of DD-1 with competitor (monoclonal antibody DD-1; FIGURE, DD-1, 100-0.2 ppb)
Clc1ccc2oc3c(Cl)c(Cl)c(Cl)c(Cl)c3c2c1Cl [1,2,3,4,8,9-Hexa-CDBF]	> 150	> 200	> 10	> 200	either do not react or react only marginally	> 200			
Clc1cc2oc3cc(Cl)c(Cl)cc3c2cc1Cl [2,3,7,8-TCDBF]	0.5	0.9	1	5		0.65	slightly less affinity		
Clc1cc2c(cc1Cl)Oc1cc(Cl)c(Cl)cc1O2 [2,3,7,8-TCDD, 2,3,7,8-tetrachlorodibenzo-p-dioxin]	6	3	0.5	5		1	slightly less affinity; also recorded: recognize	about 20 ppb	
Nc1c(Cl)ccc2c1Oc1cc(Cl)c(Cl)cc1O2 [1-amino-2,7,8-TriCDD]	0.02	> 0.04	> 0.02	> 0.01		0.2			
Clc1cc(Cl)c(-c2ccccc2Cl)c(Cl)c1 [2,2',4,6-TCBP]	> 200	> 200	> 10	> 200		> 200			
Oc1c(Cl)c(Cl)c(Cl)c(Cl)c1Cl [Pentachlorophenol]	> 2000	> 2000	> 2000	> 2000		> 2000			
Clc1cc(Cl)c2c(c1)Oc1cc(Cl)c(Cl)cc1O2 [1,3,7,8-TCDD]	1	0.15		> 2		0.2	highest affinity		
O=C(O)COc1cc(Cl)c(Cl)cc1Cl [2,4,5-Trichlorophenoxyacet, 2,4,5-Trichloro-phenoxyacet]	2700	> 2000	> 2000	> 2000		2000			
Clc1c(Cl)c(Cl)c2c(c1Cl)Oc1c(Cl)c(Cl)c(Cl)c(Cl)c1O2 [Octachloro-DD, octachlorodibenzodioxin]	> 200	> 200	> 10	> 200	either do not react or react only marginally	> 200			does not react
Clc1cc(-c2cc(Cl)c(Cl)c(Cl)c2Cl)c(Cl)c(Cl)c1Cl [2,2',3,3',4,4',5,5'-Octa-CBP]	> 200	> 200	> 10	> 200		> 200			
Clc1c(Cl)c(Cl)c2c(oc3c(Cl)c(Cl)c(Cl)c(Cl)c32)c1Cl [Octachloro-DBF]	> 200	> 200	> 10	> 200	either do not react or react only marginally	> 200			
Oc1ccc(Cl)cc1Cl [2,4-Dichlorophenol]	> 2000	> 2000	> 2000	> 2000		2000			
Clc1ccc(-c2c(Cl)cc(Cl)c(Cl)c2Cl)c(Cl)c1Cl [2,2',3,3',4,4',6-Hepta-CBP]	> 200	> 200	> 10	> 200		> 200			
Oc1cc(Cl)c(Cl)cc1Cl [2,4,5-Trichlorophonol]	> 2000	> 2000	> 2000	> 2000		800			
O=S1OCC2C(CO1)C1(Cl)C(Cl)=C(Cl)C2(Cl)C1(Cl)Cl (centres unmarked) [Endosulfan]	> 2000	> 2000	> 2000	> 2000		> 2000			
Clc1ccc(C(c2ccc(Cl)cc2)C(Cl)(Cl)Cl)cc1 [DDT]	> 2000	> 2000	> 2000	> 2000		> 2000			
ClC1=C(Cl)C2(Cl)C3C(Cl)C(Cl)CC3C1(Cl)C2(Cl)Cl (centres unmarked) [Chlordane]	> 2000	> 2000	> 2000	> 2000		> 2000			
